# Test results from PubChem BioAssay AID1259338 (Broad Institute, 2017).
# The source made the active and inactive calls.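 The calls were made as follows: active = compounds lowering the signal with a fitted AC50 at or below a set concentration limit; inconclusive = flat curve with 30 to 70% inhibition, or a poor fit; inactive = the rest.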
# Target: Caspase recruitment domain-containing protein 9 (Homo sapiens) + E3 ubiquitin-protein ligase TRIM62 (Homo sapiens) (UniProt Q9H257+Q9BVG3)
# Experiment: disruptors of CARD9-TRIM62 binding, dose response, cell lysate, HEK293FT lysates, Luminex bead readout (AID 1259338); as to activity change, negative = inhibition: reference of the scale not given here
# Conditions: Luminex bead PPI, MFI
# Chain of Caspase recruitment domain-containing protein 9 (Homo sapiens) + E3 ubiquitin-protein ligase TRIM62 (Homo sapiens) (Q9BVG3 whole entry, looked up, the tested form may be a part): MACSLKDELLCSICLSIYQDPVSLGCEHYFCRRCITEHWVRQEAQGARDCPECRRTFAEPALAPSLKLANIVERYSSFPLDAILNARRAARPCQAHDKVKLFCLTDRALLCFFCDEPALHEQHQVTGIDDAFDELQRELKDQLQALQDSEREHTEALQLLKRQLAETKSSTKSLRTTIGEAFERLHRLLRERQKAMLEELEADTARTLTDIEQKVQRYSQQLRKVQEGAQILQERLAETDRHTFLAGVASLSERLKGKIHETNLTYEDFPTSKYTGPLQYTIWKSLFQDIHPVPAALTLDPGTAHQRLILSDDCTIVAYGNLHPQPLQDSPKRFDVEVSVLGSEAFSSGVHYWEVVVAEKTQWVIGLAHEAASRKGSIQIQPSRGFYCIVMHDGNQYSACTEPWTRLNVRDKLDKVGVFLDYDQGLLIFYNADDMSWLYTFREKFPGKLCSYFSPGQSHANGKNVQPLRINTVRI
# Chain of Caspase recruitment domain-containing protein 9 (Homo sapiens) + E3 ubiquitin-protein ligase TRIM62 (Homo sapiens) (Q9H257 whole entry, looked up, the tested form may be a part): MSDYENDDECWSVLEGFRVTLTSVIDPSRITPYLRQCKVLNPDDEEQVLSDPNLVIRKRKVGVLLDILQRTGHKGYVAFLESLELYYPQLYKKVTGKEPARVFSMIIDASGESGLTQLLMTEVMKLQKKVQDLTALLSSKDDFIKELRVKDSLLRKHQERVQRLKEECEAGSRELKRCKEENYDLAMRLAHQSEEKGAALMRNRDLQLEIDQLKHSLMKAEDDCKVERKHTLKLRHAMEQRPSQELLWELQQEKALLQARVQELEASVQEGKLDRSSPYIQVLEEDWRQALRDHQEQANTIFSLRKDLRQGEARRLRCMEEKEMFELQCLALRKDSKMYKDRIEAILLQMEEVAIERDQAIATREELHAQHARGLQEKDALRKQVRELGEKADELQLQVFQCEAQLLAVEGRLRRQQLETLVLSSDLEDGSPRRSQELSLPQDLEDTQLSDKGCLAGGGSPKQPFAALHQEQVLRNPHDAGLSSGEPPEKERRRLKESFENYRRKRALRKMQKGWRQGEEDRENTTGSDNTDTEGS
row,Structure (SMILES),AC50
1,O=C(Nc1nccs1)c1cc(-c2ccccn2)nc2c(Cl)cccc12,> 160 µM (inactive)
2,Cc1ccc2cc(CN(Cc3ccco3)S(C)(=O)=O)c(=O)[nH]c2c1,> 160 µM (inactive)
3,O=S(=O)(c1ccc2nc(-c3ccco3)c(-c3ccco3)nc2c1)N1CCOCC1,> 160 µM (inactive)
4,NC(=O)C1(N2CCCCC2)CCN(c2ncc(NC(=O)c3cccc(Cl)c3)cc2C(=O)O)CC1,6.54 µM
5,NC(=O)C1(N2CCCCC2)CCN(c2ccc(NC(=O)c3cccc(Cl)c3)cc2C(=O)O)CC1,14.8 µM
6,Cc1ccccc1C(=O)Nc1cnc(N2CCC(C(N)=O)(N3CCCCC3)CC2)c(C(=O)O)c1,7.55 µM
7,Nc1c(C(=O)NCc2ccco2)c2nc3ccccc3nc2n1CCN1CCOCC1,> 160 µM (inactive)
8,OCc1ccc(O)c2ncccc12,23.5 µM
9,C[C@H](CO)N1C[C@H](C)[C@@H](CN(C)CC2CCCCC2)OCCCC[C@H](C)Oc2ccc(NS(C)(=O)=O)cc2C1=O,28.9 µM
10,COc1ccc(S(=O)(=O)Nc2ccc3c(c2)C(=O)N([C@H](C)CO)C[C@H](C)[C@@H](CN(C)CC2CCCCC2)OCCCC[C@H](C)O3)cc1,> 160 µM (inactive)
11,Cc1ccc(C(=O)Nc2cnc(N3CCC(C(N)=O)(N4CCCCC4)CC3)c(C(=O)O)c2)cc1,8.64 µM
12,O=C(Nc1nc(-c2ccco2)c(-c2ccco2)s1)C1CCC1,54.7 µM
13,COc1ccc(NC(=O)CN(C)C(=O)c2cc(-c3ccco3)nc3ccccc23)cc1,78.2 µM
14,CC(=O)c1cccc(OCC(=O)N(C)CC(=O)NCc2ccco2)c1,82.2 µM
15,Cc1ccsc1[C@@H]1CCN(Cc2ccc(-c3ccn[nH]3)o2)C[C@H]1O,> 160 µM (inactive)
16,O=C1CC2(CCN(C(=O)Nc3ccccc3)CC2)CN1Cc1ccc(Cl)cc1,68.7 µM
17,NC(=O)C1(N2CCCCC2)CCN(c2ccc(NC(=O)c3ccccc3F)cc2C(=O)O)CC1,42 µM
18,NC(=O)C1(N2CCCCC2)CCN(c2ncc(NC(=O)c3cccs3)cc2C(=O)O)CC1,21.3 µM
19,Cc1cccc2nc(CSCc3ccco3)cn12,> 160 µM (inactive)
20,O=C(O)C1Oc2cc3ccccc3cc2O1,68.9 µM
21,O=C(Nc1nc(-c2ccccn2)cs1)c1cccc(-n2cnnn2)c1,77.9 µM
22,CC1=CCC(C(=O)O)C(C(=O)NC2CCCCC2)C1 (stereo not given),83.4 µM
23,O=C(Nc1ccc(OCC(=O)N2CCOCC2)cc1)c1cncc(Br)c1,42.1 µM
24,O=[N+]([O-])c1cccc(-c2nnc3ccc4ccccc4n23)c1,80.2 µM
25,COc1c(C(=O)O)csc1Br,29.6 µM
26,COc1ccc(-n2c(C)c3c(OC)cccc(=O)c3c2C)cc1,79.7 µM
27,NC(=O)C1(N2CCCCC2)CCN(c2ncc(NC(=O)c3ccc(Cl)cc3)cc2C(=O)O)CC1,6.01 µM
28,O=C(Cc1ccc(S(=O)(=O)N2CCOCC2)s1)Nc1nc2c(s1)CCCC2,> 160 µM (inactive)

# Same assay, conditions: Luminex bead PPI, MFI, at 38 µM (top of the series)
row,Structure (SMILES),"activity change, negative = inhibition"
1,CCC12CCCN3CCc4c(n(c5ccccc45)C(O)(C(=O)OC)C1)C32 (stereo not given),inactive

# Same assay, conditions: Luminex bead PPI, MFI, at 80 µM (top of the series)
row,Structure (SMILES),"activity change, negative = inhibition"
1,Cc1oc(CSCc2cc(C(=O)O)c(C)o2)cc1C(=O)O,inactive
2,O=[N+]([O-])c1ccc2cc[nH]c2c1,inactive
3,CCOc1cc2c(C#N)c(N3CCNCC3)nc(N)c2c(N)n1,inactive
4,O=C(CN1CCN(c2ccccc2O)CC1)NC(=O)NC1CCCC1,inactive
5,O=C(Cc1cccs1)Nc1nnc(Cc2ccccc2)s1,inactive
6,Cc1cccc(NC(=O)Cc2coc3ccc4ccccc4c23)n1,inactive
7,N#CCSc1nc2c(c(=O)n1Cc1ccco1)C1(CCCC1)Cc1ccccc1-2,inactive
8,CCN(CCNC(=O)C1CCN(S(=O)(=O)c2c(C)noc2C)CC1)c1ccccc1,inactive
9,CCOC(=O)/C=C/S(=O)(=O)c1ccc(NC(C)=O)cc1,inactive
10,O=C(CCn1cncn1)N1CCC(n2cc(-c3ccccn3)nn2)CC1,inactive
11,Cc1ccc(Cc2cnc(N)s2)o1,inactive
12,C[C@H](CO)N1C[C@H](C)[C@@H](CN(C)CC2CCCCC2)OCCCC[C@H](C)Oc2ccc(NS(=O)(=O)c3ccccc3)cc2C1=O,inactive
13,COc1ccc(CNC(=O)c2nc(Nc3ccc(C)cc3)c3ccccc3n2)cc1,inactive
14,O=c1oc(-c2ccccc2)nc2sc3c(c12)CCC3,inactive
15,O=C1c2ccccc2S(=O)(=O)N1Cc1cccc(S(=O)(=O)N2CCOCC2)c1,inactive
16,C[n+]1cccc2cccc(O)c21,inactive
17,O=C(NC(Sc1ncccn1)C(=O)c1ccccc1)c1ccccc1 (stereo not given),inactive
18,Nc1ccccc1Sc1nccc(C(F)(F)F)n1,inactive
19,Cc1c(/C=C/c2nc3ccccc3c(=O)n2-c2ccccn2)c2ccccc2n1C,inactive

row,Structure (SMILES),"activity change, negative = inhibition"
1,Cc1scc(C(=O)NCc2ccco2)c1-c1ccccc1,inactive
2,O=C(Nc1nc(-c2ccco2)c(-c2ccco2)s1)c1ccc(F)cc1F,inactive
3,C[C@H](CO)N1C[C@H](C)[C@@H](CN(C)C(=O)C2CCCCC2)OCCCC[C@H](C)Oc2ccc(NS(C)(=O)=O)cc2C1=O,inactive
4,O=C(Nc1ccc2oc(-c3cccnc3)nc2c1)c1ccc2c(c1)OCCO2,inactive
5,CN(c1ccccc1C(=O)NCc1ccco1)S(C)(=O)=O,inactive
6,Nc1cc2c(cc1O)CCCC2,inactive
7,O=C(Nc1nc(-c2nc3ccccc3s2)cs1)c1ccco1,inactive
8,O=C(COC(=O)c1ccccc1Oc1ccccc1)NCc1ccco1,inactive
9,CCc1cc2c(=O)n(Cc3ccco3)c(SC)nc2s1,inactive
10,Cc1sc2ncnc(SCc3ccco3)c2c1C,inactive
11,Fc1ccc(CSc2nnc(-c3cccnc3)n2Cc2ccco2)cc1,inactive
12,O=S(=O)(Nc1nc2ccc(S(=O)(=O)N3CCCCC3)cc2s1)c1ccccc1,inactive
13,CC1(C)Cc2ccccc2-c2nc(-c3ccccc3)oc(=O)c21,inactive
14,CCC1c2ccc(C)n2CCN1C(=O)Nc1ccccc1C(=O)OC (stereo not given),inactive
15,O=C(COC(=O)c1cc(-c2ccco2)nc2ccccc12)NCc1ccccc1,inactive
16,Clc1ccc2nc(CN3CCCCCC3)cn2c1,inactive
17,COc1ccc(-c2ccc(CCC(=O)O)o2)cc1,inactive
18,O=S(=O)(Nc1nc2ccccc2nc1NCc1ccco1)c1ccccc1,inactive
19,O=C(NCc1ccco1)[C@@H]1CSC2c3ccccc3C(=O)N21 (stereo not given in full),inactive

row,Structure (SMILES),"activity change, negative = inhibition"
1,N#Cc1sc2nc(-c3ccccc3)cc(-c3ccco3)c2c1N,inactive
2,O=C1CC(c2ccco2)Cc2nc(N3CCc4ccccc4C3)ncc21 (stereo not given),inactive
3,O=S(=O)(Nc1nccs1)c1ccc(-n2cccc2)cc1,inactive
4,COc1ccc(N2CC3=C(N2)c2ccccc2CC3)cc1,inactive
5,O=C(O)c1cc(-c2ccco2)nc2ccccc12,inactive
6,CCOC(=O)c1[nH]c(Cc2[nH]c(C(=O)OCC)c(C)c2C)c(C)c1C,inactive
7,O=C(COC(=O)CCC(=O)c1cccs1)NCc1ccco1,inactive
8,CCOC(=O)c1ccc(-c2ccc(C3CC(=O)Nc4cc5c(cc43)OCCO5)o2)cc1 (stereo not given),inactive
9,Cc1cnc(C)c(N2CCN(C(=O)[C@H]3CC[C@@H](N)C3)CC2)n1,inactive
10,N#Cc1c(-c2ccco2)cc(-c2cccnc2)nc1N,inactive
11,Cc1ccc(C)n1NC(=O)c1ccccc1O,inactive
12,C[C@H](CO)N1C[C@H](C)[C@@H](CN(C)C(=O)C2CCCCC2)OCCCC[C@H](C)Oc2ccc(NS(=O)(=O)c3ccc(F)cc3)cc2C1=O,inactive
13,O=C(O)c1ccccc1SC1CC(=O)N(Cc2ccccc2)C1=O (stereo not given),inactive
14,N#Cc1c2ccc(OCC(=O)NCc3ccco3)cc2n2ccccc12,inactive
15,Cc1ccc(-c2nn(-c3ccccc3)cc2CN(Cc2ccccc2)C(=O)CCC(=O)O)o1,inactive
16,O=C(CCc1nc(-c2ccccc2)no1)NCC1CNCCOC1 (stereo not given),inactive
17,O=C(Nc1ccc2c(c1)nc1n2CCN(C2CCCCC2)C1)c1ccco1,inactive
18,O=C(CCCN1C(=O)NC2(CCCC2)C1=O)Nc1ccc(F)cc1,inactive
